Drawing on patent US20160016951A1 (Merck Patent GmbH, priority 2014, published 2016), this text covers IC50 for 33 compounds.

For this test, the target named is T1, CDK8 (CDK8/CycC) (Homo sapiens, UniProt P49336).
T1 construct: purchased Invitrogen PV4402
T1 sequence (P49336 whole entry): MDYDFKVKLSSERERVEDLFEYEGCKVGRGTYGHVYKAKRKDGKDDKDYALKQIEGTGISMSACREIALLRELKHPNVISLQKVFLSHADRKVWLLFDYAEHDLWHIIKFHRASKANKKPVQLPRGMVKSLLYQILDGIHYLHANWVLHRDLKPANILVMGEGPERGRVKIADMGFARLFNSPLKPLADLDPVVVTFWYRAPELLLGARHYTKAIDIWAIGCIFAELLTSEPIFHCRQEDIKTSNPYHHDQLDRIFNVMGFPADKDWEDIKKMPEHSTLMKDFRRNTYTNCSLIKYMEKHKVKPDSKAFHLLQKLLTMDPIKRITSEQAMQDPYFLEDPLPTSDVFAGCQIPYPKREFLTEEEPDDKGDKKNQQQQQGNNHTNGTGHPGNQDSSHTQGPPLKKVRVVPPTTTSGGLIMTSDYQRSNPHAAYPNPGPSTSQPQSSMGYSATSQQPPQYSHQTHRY
T1 sequence (P24863 whole entry partner): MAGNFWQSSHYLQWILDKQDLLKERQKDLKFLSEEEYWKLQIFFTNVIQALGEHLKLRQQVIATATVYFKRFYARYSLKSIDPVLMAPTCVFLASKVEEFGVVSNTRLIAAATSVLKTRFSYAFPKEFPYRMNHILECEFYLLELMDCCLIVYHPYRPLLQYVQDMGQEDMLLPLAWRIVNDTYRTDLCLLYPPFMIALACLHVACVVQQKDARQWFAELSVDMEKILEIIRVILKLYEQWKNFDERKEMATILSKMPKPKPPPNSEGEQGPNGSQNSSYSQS
In words: FRET based Lanthascreen binding competition assay. To be noted: 5 nM CDK8/CycC, 10 nM Alexa647-Tracer, 1% DMSO, 60 min at RT; read-out: IC50 CDK8 binding. As for the experimental part:
FRET based Lanthascreen binding competition assay: A dye-labeled ATP competitive probe served as a FRET acceptor upon binding to CDK8 labeled with a strepavidin —Eu-chelate (via abiotinylated anti His antibody). […] In case this probe was competed by an inhibitor as such a signal cannot be generated any more. The CDK8 used for this assay was a protein co-expressed with CycC.
The assay procedure for an assay in a 1536 well plate was performed according to the following: 2 μL CDK8/biotin-anti-His Ab/SA-Eu mix in Assay buffer were pipetted into the wells of a micro plate.
1 μL compound in 20 mM Hepes buffer/5% DMSO was added. The plate was shaken for 30 sec and incubated for 20 min at RT. 2 μL Alexa647-probe in assay buffer were added. The plate was shaken for 30 sec again and incubated for 60 min at RT in the dark. Then the plate was read out on a Perkin Elmer Envision (mode LANCE/TRF, excitation 340 nm emission 650 nm).
A general note: Time-resolved FRET reads energy transfer from a long-lived donor to a nearby acceptor.
The IC50 is the concentration that gives 50% inhibition. In the case of `Cn1cc(-c2ccc(-c3cncc4ccc(NS(C)(=O)=O)nc34)cc2)cn1` [Compound 2, N-(8-(4-(1-Methyl-1H-pyrazol-4-yl)phenyl)-1,6-naphthyridin-2-yl)methanesulfonamide], the IC50 is below 0.01 µM.

For `CN1c2ccc(-c3cncc4ccc(C(=O)NC5(C)CC5)nc34)cc2CS1(=O)=O` [Compound 8, 8-(1-Methyl-2,2-dioxo-2,3-dihydro-1H-benzo[c]isothiazol-5-yl)-[1,6]naphthyridine-2-carboxylic acid (1-methyl-cyclopropyl)-amide], the IC50 is below 0.01 µM. To `CC(=O)NC(=O)c1ccc2cncc(-c3ccc(-c4cnn(C)c4)cc3)c2n1` [Compound 9, 8-[4-(1-Methyl-1H-pyrazol-4-yl)-phenyl]-[1,6]naphthyridine-2-carboxylic acid acetyl-amide] belongs below 0.01 µM; to `CNC(=O)c1nc2c(-c3ccc4c(c3)CS(=O)(=O)N4C)cncc2cc1C` [Compound 12, 3-Methyl-8-(1-methyl-2,2-dioxo-2,3-dihydro-1H-benzo[c]isothiazol-5-yl)-[1,6]naphthyridine-2-carboxylic acid methylamide], below 0.01 µM; to `Cn1cc(-c2ccc(-c3cncc4ccc(C(N)=O)nc34)c(F)c2)cn1` [Compound 14, 8-(2-fluoro-4-(1-methyl-1H-pyrazol-4-yl)phenyl)-1,6-naphthyridine-2-carboxamide], below 0.01 µM. With `CNC(=O)c1ccc2cncc(-c3ccc4c(c3)N(C)C(=O)C4)c2n1` [Compound 15, 8-(1-methyl-2-oxo-2,3-dihydro-1H-indol-6-yl)-[1,6]naphthyridine-2-carboxylic acid methylamide], the IC50 was below 0.01 µM. As for `CN1c2ccc(-c3cncc4ccc(C(=O)NCCN)nc34)cc2CS1(=O)=O` [Compound 16, 8-(1-Methyl-2,2-dioxo-2,3-dihydro-1H-benzo[c]isothiazol-5-yl)-[1,6]naphthyridine-2-carboxylic acid (2-amino-ethyl)-amide], the figure is below 0.01 µM; as for `CNC(=O)c1ccc2cncc(-c3ccc(-c4cnn(C)c4)cc3F)c2n1` [Compound 17, 8-(2-fluoro-4-(1-methyl-1H-pyrazol-4-yl)phenyl)-N-methyl-1,6-naphthyridine-2-carboxamide], below 0.01 µM; as for `CN1c2ccc(-c3cncc4ccc(C(=O)N5CCNCC5)nc34)cc2CS1(=O)=O` [Compound 18, [8-(1-Methyl-2,2-dioxo-2,3-dihydro-1H-benzo[c]isothiazol-5-yl)-[1,6]naphthyridin-2-yl]-piperazin-1-yl-methanone], below 0.01 µM. As for `Cc1cc(-c2cnn(C)c2)ccc1-c1cncc2ccc(C(N)=O)nc12` [Compound 19, 8-(2-methyl-4-(1-methyl-1H-pyrazol-4-yl)phenyl)-1,6-naphthyridine-2-carboxamide], the figure is below 0.01 µM; as for `CN1c2ccc(-c3cncc4ccc(C(=O)NC5CC5)nc34)cc2CS1(=O)=O` [Compound 21, 8-(1-Methyl-2,2-dioxo-2,3-dihydro-1H-benzo[c]isothiazol-5-yl)-[1,6]naphthyridine-2-carboxylic acid cyclopropylamide], below 0.01 µM; as for `COC1CN(C(=O)c2ccc3cncc(-c4ccc5c(cnn5C)c4)c3n2)C1` [Compound 22, (3-methoxyazetidin-1-yl)(8-(1-methyl-1H-indazol-5-yl)-1,6-naphthyridin-2-yl)methanone], below 0.01 µM. As for `C[C@@H](NC(=O)c1ccc2cncc(-c3ccc(-c4cnn(C)c4)cc3)c2n1)c1ccccc1` [Compound 24, (R)-8-(4-(1-methyl-1H-pyrazol-4-yl)phenyl)-N-(1-phenylethyl)-1,6-naphthyridine-2-carboxamide], the figure is below 0.01 µM. Consider `C[C@H](NC(=O)c1ccc2cncc(-c3ccc(-c4cnn(C)c4)cc3)c2n1)c1ccccc1` [Compound 27, (S)-8-(4-(1-methyl-1H-pyrazol-4-yl)phenyl)-N-(1-phenylethyl)-1,6-naphthyridine-2-carboxamide], for which the half-maximal inhibitory concentration (IC50) was below 0.01 µM.

Take `Cc1cc2cncc(-c3ccc4c(c3)CS(=O)(=O)N4C)c2nc1C(=O)NC1CC1` [Compound 28, 3-Methyl-8-(1-methyl-2,2-dioxo-2,3-dihydro-1H-benzo[c]isothiazol-5-yl)-[1,6]naphthyridine-2-carboxylic acid cyclopropylamide]: the IC50 was below 0.01 µM. As for `O=C(c1ccc2cncc(-c3ccc4c(c3)CS(=O)(=O)N4)c2n1)N1CCC(F)(F)C1` [Compound 30, (3,3-difluoro-pyrrolidin-1-yl)-[8-(2,2-dioxo-2,3-dihydro-1H-benzo[c]isothiazol-5-yl)-[1,6]naphthyridin-2-yl]-methanone], the figure is below 0.01 µM. Regarding `COC1CN(C(=O)c2ccc3cncc(-c4ccc(-c5cnn(CC(C)(C)O)c5)cc4)c3n2)C1` [Compound 31, (8-(4-(1-(2-hydroxy-2-methylpropyl)-1H-pyrazol-4-yl)phenyl)-1,6-naphthyridin-2-yl)(3-methoxyazetidin-1-yl)methanone], the IC50 is below 0.01 µM.

`CNC(=O)c1ccc2c(N)ncc(-c3ccc4c(c3)CS(=O)(=O)N4C)c2n1` [Compound 32, 5-Amino-8-(1-methyl-2,2-dioxo-2,3-dihydro-1H-benzo[c]isothiazol-5-yl)-[1,6]naphthyridine-2-carboxylic acid methylamide]: the IC50 was below 0.01 µM. As for `COC1CN(C(=O)c2ccc3cncc(-c4ccc5nn(CC(C)(C)O)cc5c4)c3n2)C1` [Compound 33, (8-(2-(2-hydroxy-2-methylpropyl)-2H-indazol-5-yl)-1,6-naphthyridin-2-yl)(3-methoxyazetidin-1-yl)methanone], the figure is below 0.01 µM. To `O=C(c1ccc2cncc(Br)c2n1)N1CCC[C@H]1c1ccc(Cl)cc1` [Compound 34, (S)-(8-bromo-1,6-naphthyridin-2-yl)(2-(4-chlorophenyl)pyrrolidin-1-yl)methanone] belongs below 0.01 µM; to `Cn1cc(-c2ccc(-c3cncc4ccc(C(=O)N5CCC(F)(F)CC5)nc34)cc2)cn1` [Compound 35, (4,4-difluoropiperidin-1-yl)(8-(4-(1-methyl-1H-pyrazol-4-yl)phenyl)-1,6-naphthyridin-2-yl)methanone], below 0.01 µM.

As to `Cc1cncc2ccc(C(=O)N[C@H](C)c3ccccc3)nc12` [Compound 36, (R)-8-methyl-N-(1-phenylethyl)-1,6-naphthyridine-2-carboxamide], the IC50 was below 0.01 µM. As for `O=C(c1ccc2cnccc2n1)N1CCC[C@H]1c1ccc(Cl)cc1` [Compound 37, (S)-(2-(4-chlorophenyl)pyrrolidin-1-yl)(1,6-naphthyridin-2-yl)methanone], the figure is below 0.01 µM. To `CC(=O)NCc1ccc2cncc(-c3ccc4c(c3)CS(=O)(=O)N4C)c2n1` [Compound 38, N-[8-(1-Methyl-2,2-dioxo-2,3-dihydro-1H-benzo[c]isothiazol-5-yl)-[1,6]naphthyridin-2-ylmethyl]-acetamide] belongs 0.01 to 0.1 µM; to `CNC(=O)c1ccc2c(N)ncc(-c3ccc(-c4cnn(C)c4)cc3F)c2n1` [Compound 40, 5-amino-8-(2-fluoro-4-(1-methyl-1H-pyrazol-4-yl)phenyl)-N-methyl-1,6-naphthyridine-2-carboxamide], 0.01 to 0.1 µM; to `Cc1cc2cncc(-c3ccc4c(c3)CS(=O)(=O)N4C)c2nc1C(=O)N1CCC(F)(F)C1` [Compound 41, (3,3-Difluoro-pyrrolidin-1-yl)-[3-methyl-8-(1-methyl-2,2-dioxo-2,3-dihydro-1H-benzo[c]isothiazol-5-yl)-[1,6]naphthyridin-2-yl]-methanone], 0.01 to 0.1 µM. To `Cn1cc(-c2ccc(-c3cncc4ccc(-c5nn[nH]n5)nc34)cc2)cn1` [Compound 42, 8-(4-(1-methyl-1H-pyrazol-4-yl)phenyl)-2-(2H-tetrazol-5-yl)-1,6-naphthyridine] belongs 0.01 to 0.1 µM.

Consider `CNC(=O)c1ccc2cncc(-c3ccc(-c4cnn(C)c4)cc3C)c2n1` [Compound 43, N-methyl-8-(2-methyl-4-(1-methyl-1H-pyrazol-4-yl)phenyl)-1,6-naphthyridine-2-carboxamide], for which the half-inhibitory concentration (IC50) is 0.01 to 0.1 µM. As for `CN(CCO)C(=O)c1ccc2cncc(-c3ccc4c(c3)CS(=O)(=O)N4)c2n1` [Compound 45, 8-(2,2-Dioxo-2,3-dihydro-1H-benzo[c]isothiazol-5-yl)-[1,6]naphthyridine-2-carboxylic acid (2-hydroxy-ethyl)-methyl-amide], the figure is 0.01 to 0.1 µM; as for `CN(C)C(=O)c1ccc2cncc(-c3ccc4c(c3)CS(=O)(=O)N4)c2n1` [Compound 46, 8-(2,2-Dioxo-2,3-dihydro-1H-benzo[c]isothiazol-5-yl)-[1,6]naphthyridine-2-carboxylic acid dimethylamide], 0.01 to 0.1 µM. To `C[C@@H](NC(=O)c1ccc2cncc(Br)c2n1)c1ccccc1` [Compound 48, (R)-8-bromo-N-(1-phenylethyl)-1,6-naphthyridine-2-carboxamide] belongs 0.01 to 0.1 µM; to `COC1CN(C(=O)c2ccc3cncc(-c4ccc(-c5cn(C)nc5C(F)(F)F)cc4)c3n2)C1` [Compound 49, (3-methoxyazetidin-1-yl)(8-(4-(1-methyl-3-(trifluoromethyl)-1H-pyrazol-4-yl)phenyl)-1,6-naphthyridin-2-yl)methanone], 0.01 to 0.1 µM; to `Nc1ncc(-c2ccc3c(c2)CS(=O)(=O)N3)c2nc(C(=O)N3CCC(F)(F)C3)ccc12` [Compound 50, (5-Amino-8-(2,2-dioxido-1,3-dihydrobenzo[c]isothiazol-5-yl)-1,6-naphthyridin-2-yl)(3,3-difluoropyrrolidin-1-yl)methanone], 0.01 to 0.1 µM.
